The values below come from patent US20080200454A1, “CARBON-LINKED TETRAHYDRO-PYRAZOLO-PYRIDINE MODULATORS OF CATHEPSIN S” (priority 2007, published 2008).

The structures appear in SMILES notation.

In one test the target is Recombinant human cathepsin S (CatS) (Homo sapiens, UniProt P25774). Description: Recombinant human cathepsin S (CatS) inhibition assay, fluorogenic substrate Z-Valine-Valine-Arginine-AMC.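 Note: Baculovirus-expressed CatS in pH 5.0 sodium acetate buffer with DTT and NaCl, fluorescence read each minute over 20 min, inhibition derived from rate slope.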
Recombinant human cathepsin S (CatS), sequence (P25774 115-331): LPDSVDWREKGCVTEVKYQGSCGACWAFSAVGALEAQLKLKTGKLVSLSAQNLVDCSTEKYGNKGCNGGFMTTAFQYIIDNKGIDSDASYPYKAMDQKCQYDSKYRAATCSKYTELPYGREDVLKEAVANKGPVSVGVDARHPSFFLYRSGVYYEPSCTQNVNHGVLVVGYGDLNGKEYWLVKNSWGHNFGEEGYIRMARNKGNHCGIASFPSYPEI
Conditions: not given
In the case of `NC(=O)N1CCc2c(c(-c3ccc(Cl)c(C#Cc4ccc(CNCc5ccc(Cl)cc5)cc4)c3)nn2CCCN2CCCCC2)C1` [Example 458, 3-(4-Chloro-3-{[4-({[(4-chlorophenyl)methyl]amino}methyl)phenyl]ethynyl}phenyl)-1-(3-piperidin-1-ylpropyl)-1,4,6,7-tetrahydro-5H-pyrazolo[4,3-c]pyridine-5-carboxamide], the IC50 is 60 nM.
Take `COC(=O)Cc1ccc(C#Cc2cc(-c3nn(CCCN4CCOCC4)c4c3CN(S(C)(=O)=O)CC4)ccc2Cl)cc1` [Example 10, (4-{2-Chloro-5-[5-methanesulfonyl-1-(3-morpholin-4-yl-propyl)-4,5,6,7-tetrahydro-1H-pyrazolo[4,3-c]pyridin-3-yl]-phenylethynyl}-phenyl)-acetic acid methyl ester]: the concentration for half-maximal inhibition (IC50) worked out at 420 nM.
As to `NC(=O)C(=O)N1CCc2c(c(-c3ccc(Cl)c(C#Cc4ccc(Cl)c(CN[C@@H](CO)c5ccccc5)c4)c3)nn2CCCN2CCSCC2)C1` [Example 563, 2-[3-(4-Chloro-3-{[4-chloro-3-({[(1R)-2-hydroxy-1-phenylethyl]amino}methyl)phenyl]ethynyl}phenyl)-1-(3-thiomorpholin-4-ylpropyl)-1,4,6,7-tetrahydro-5H-pyrazolo[4,3-c]pyridin-5-yl]-2-oxoacetamide], the 50% inhibitory concentration (IC50) stood at 30 nM.
Still for that read-out and setting: in the case of `CS(=O)(=O)N1CCc2c(c(-c3ccc(Cl)c(C#Cc4ccc5c(c4)CNCC5)c3)nn2CCCN2CCN(c3ccccc3)CC2)C1` [Example 225, 7-[(2-Chloro-5-{5-(methylsulfonyl)-1-[3-(4-phenylpiperazin-1-yl)propyl]-4,5,6,7-tetrahydro-1H-pyrazolo[4,3-c]pyridin-3-yl}phenyl)ethynyl]-1,2,3,4-tetrahydroisoquinoline] it was 10 nM; in that of `CS(=O)(=O)N1CCc2c(c(-c3ccc(Cl)c(C#Cc4ccc(CCC(=O)O)cc4)c3)nn2CCCN2CCOCC2)C1` [Example 9, 3-(4-{2-Chloro-5-[5-methanesulfonyl-1-(3-morpholin-4-yl-propyl)-4,5,6,7-tetrahydro-1H-pyrazolo[4,3-c]pyridin-3-yl]-phenylethynyl}-phenyl)-propionic acid], 160 nM; in that of `C[C@H]1COCCN1C[C@H](O)Cn1nc(-c2ccc(Cl)c(C#Cc3ccc(CNCc4ccc(Cl)cc4)cc3)c2)c2c1CCN(C(N)=O)C2` [Example 257, 3-(4-Chloro-3-{4-[(4-chloro-benzylamino)-methyl]-phenylethynyl}-phenyl)-1-[(2S)-2-hydroxy-3-((3S)-3-methyl-morpholin-4-yl)-propyl]-1,4,6,7-tetrahydro-pyrazolo[4,3-c]pyridine-5-carboxylic acid amide], 70 nM.
On to `NC(=O)C(=O)N1CCc2c(c(-c3ccc(Cl)c(C#Cc4ccc(Cl)c(C(=O)NCCN5CCOCC5)c4)c3)nn2CCCN2CCSCC2)C1` [Example 581, 5-[(5-{5-[Amino(oxo)acetyl]-1-(3-thiomorpholin-4-ylpropyl)-4,5,6,7-tetrahydro-1H-pyrazolo[4,3-c]pyridin-3-yl}-2-chlorophenyl)ethynyl]-2-chloro-N-(2-morpholin-4-ylethyl)benzamide], for which the IC50 was found to be 30 nM.
The same measure, in the same setting: in the case of `C[C@H]1COCCN1CCCn1nc(-c2ccc(Cl)c(C#Cc3ccc(Cl)c(CNCC(=O)O)c3)c2)c2c1CCNC2` [Example 553, N-[(2-Chloro-5-{[2-chloro-5-(1-{3-[(3S)-3-methylmorpholin-4-yl]propyl}-4,5,6,7-tetrahydro-1H-pyrazolo[4,3-c]pyridin-3-yl)phenyl]ethynyl}phenyl)methyl]glycine] it was 450 nM.

Still in this test, the particulars now being: CatS IC50.
In the case of `NC(=O)N1CCc2c(c(-c3ccc(Cl)c(C#Cc4ccc(Cl)c(CNCc5ccccn5)c4)c3)nn2CCCN2CCSCC2)C1` [Example 292, 3-{4-Chloro-3-[(4-chloro-3-{[(pyridin-2-ylmethyl)amino]methyl}phenyl)ethynyl]phenyl}-1-(3-thiomorpholin-4-ylpropyl)-1,4,6,7-tetrahydro-5H-pyrazolo[4,3-c]pyridine-5-carboxamide], the half-inhibitory concentration (IC50) was found to be 20 nM.
Still for that read-out and setting: the figure for `NC(=O)N1CCc2c(c(-c3ccc(Cl)c(C#Cc4ccc(CNCc5ccccc5Cl)cc4)c3)nn2CCCN2CCSCC2)C1` [Example 488, 3-(4-Chloro-3-{[4-({[(2-chlorophenyl)methyl]amino}methyl)phenyl]ethynyl}phenyl)-1-(3-thiomorpholin-4-ylpropyl)-1,4,6,7-tetrahydro-5H-pyrazolo[4,3-c]pyridine-5-carboxamide] is 140 nM; for `CS(=O)(=O)N1CCc2c(c(-c3ccc(Cl)c(C#Cc4ccc(CNC5CCCCC5)cc4)c3)nn2CCCN2CCOCC2)C1` [Example 326, N-{[4-({2-Chloro-5-[5-(methylsulfonyl)-1-(3-morpholin-4-ylpropyl)-4,5,6,7-tetrahydro-1H-pyrazolo[4,3-c]pyridin-3-yl]phenyl}ethynyl)phenyl]methyl}cyclohexanamine] it is 1370 nM.
Still for that read-out and setting: the figure for `CS(=O)(=O)N1CCc2c(c(-c3ccc(Cl)c(C#CC4CCCCC4)c3)nn2CCCN2CCOCC2)C1` [Example 48, 3-(4-Chloro-3-cyclohexylethynyl-phenyl)-5-methanesulfonyl-1-(3-morpholin-4-yl-propyl)-4,5,6,7-tetrahydro-1H-pyrazolo[4,3-c]pyridine] is 6750 nM; for `CC1(C)CCN(CCCn2nc(-c3ccc(Cl)c(C#Cc4ccc(CNCc5ccc(Cl)cc5)cc4)c3)c3c2CCN(S(C)(=O)=O)C3)CC1` [Example 355, 1-{4-[(2-Chloro-5-{1-[3-(4,4-dimethylpiperidin-1-yl)propyl]-5-(methylsulfonyl)-4,5,6,7-tetrahydro-1H-pyrazolo[4,3-c]pyridin-3-yl}phenyl)ethynyl]phenyl}-N-[(4-chlorophenyl)methyl]methanamine] it is 110 nM; for `C[C@H]1COCCN1CCCn1nc(-c2ccc(Cl)c(CCc3ccc(CNCc4ccc(Cl)cc4)cc3)c2)c2c1CCN(C(N)=O)C2` [Example 244, 3-(4-Chloro-3-{2-[4-({[(4-chlorophenyl)methyl]amino}methyl)phenyl]ethyl}phenyl)-1-{3-[(3S)-3-methylmorpholin-4-yl]propyl}-1,4,6,7-tetrahydro-5H-pyrazolo[4,3-c]pyridine-5-carboxamide] it is 60 nM.
Still for that read-out and setting: the figure for `CS(=O)(=O)N1CCc2c(c(-c3ccc(Cl)c(C#Cc4ccc(CNCc5ccc(Cl)cc5)cc4)c3)nn2CCCN2CCN(C3CC3)CC2)C1` [Example 388, 1-{4-[(2-Chloro-5-{1-[3-(4-cyclopropylpiperazin-1-yl)propyl]-5-(methylsulfonyl)-4,5,6,7-tetrahydro-1H-pyrazolo[4,3-c]pyridin-3-yl}phenyl)ethynyl]phenyl}-N-[(4-chlorophenyl)methyl]methanamine] is 60 nM; for `CS(=O)(=O)N1CCc2c(c(-c3ccc(Cl)c(C#Cc4ccc(CNCc5ccc(Cl)cc5)c(Cl)c4)c3)nn2CCCN2CCOCC2)C1` [Example 546, 1-[2-Chloro-4-({2-chloro-5-[5-(methylsulfonyl)-1-(3-morpholin-4-ylpropyl)-4,5,6,7-tetrahydro-1H-pyrazolo[4,3-c]pyridin-3-yl]phenyl}ethynyl)phenyl]-N-[(4-chlorophenyl)methyl]methanamine] it is 300 nM.
